≈ marks a conversion by molar mass, not a printed value.
Columns and labels:
HepG2 = experiment: MTT antitumour (cytotoxicity) assay, HepG2; assay type: cell-based; details: Homo sapiens, HepG2, HepG2 cell line, 50% inhibition of tumour cell proliferation, read-out: In vitro cytotoxicity IC50
Experimental: (§1) The designed compounds were evaluated for their in vitro antitumour effect using the standard MTT method against two human tumour cell lines, namely, HepG2 and HCT116[45–48]. The quantitative evaluation of the cytotoxicity was performed using tetrazolium salt MTT (3-(4,5-dimethyl-2-thiazolyl)-2,5-diphenyl-2 H-tetrazolium bromide) assay. The cytotoxic activity was expressed as the concentration of the compound that caused 50% growth inhibition (IC50, mean ± SEM) compared with the growth of untreated cells.

HCT116 = experiment: MTT antitumour (cytotoxicity) assay, HCT116; assay type: cell-based; details: Homo sapiens, HCT-116, HCT116 cell line, 50% inhibition of tumour cell proliferation, read-out: In vitro cytotoxicity IC50
Experimental: as §1

EGFR kinase = EGFR kinase (Homo sapiens, UniProt P00533); experiment: ELISA-based EGFR-TK kinase inhibition assay; assay type: biochemical; details: n = 3, read-out: Enzymatic IC50 toward EGFR kinase
Chain of EGFR kinase (P00533 25-1210): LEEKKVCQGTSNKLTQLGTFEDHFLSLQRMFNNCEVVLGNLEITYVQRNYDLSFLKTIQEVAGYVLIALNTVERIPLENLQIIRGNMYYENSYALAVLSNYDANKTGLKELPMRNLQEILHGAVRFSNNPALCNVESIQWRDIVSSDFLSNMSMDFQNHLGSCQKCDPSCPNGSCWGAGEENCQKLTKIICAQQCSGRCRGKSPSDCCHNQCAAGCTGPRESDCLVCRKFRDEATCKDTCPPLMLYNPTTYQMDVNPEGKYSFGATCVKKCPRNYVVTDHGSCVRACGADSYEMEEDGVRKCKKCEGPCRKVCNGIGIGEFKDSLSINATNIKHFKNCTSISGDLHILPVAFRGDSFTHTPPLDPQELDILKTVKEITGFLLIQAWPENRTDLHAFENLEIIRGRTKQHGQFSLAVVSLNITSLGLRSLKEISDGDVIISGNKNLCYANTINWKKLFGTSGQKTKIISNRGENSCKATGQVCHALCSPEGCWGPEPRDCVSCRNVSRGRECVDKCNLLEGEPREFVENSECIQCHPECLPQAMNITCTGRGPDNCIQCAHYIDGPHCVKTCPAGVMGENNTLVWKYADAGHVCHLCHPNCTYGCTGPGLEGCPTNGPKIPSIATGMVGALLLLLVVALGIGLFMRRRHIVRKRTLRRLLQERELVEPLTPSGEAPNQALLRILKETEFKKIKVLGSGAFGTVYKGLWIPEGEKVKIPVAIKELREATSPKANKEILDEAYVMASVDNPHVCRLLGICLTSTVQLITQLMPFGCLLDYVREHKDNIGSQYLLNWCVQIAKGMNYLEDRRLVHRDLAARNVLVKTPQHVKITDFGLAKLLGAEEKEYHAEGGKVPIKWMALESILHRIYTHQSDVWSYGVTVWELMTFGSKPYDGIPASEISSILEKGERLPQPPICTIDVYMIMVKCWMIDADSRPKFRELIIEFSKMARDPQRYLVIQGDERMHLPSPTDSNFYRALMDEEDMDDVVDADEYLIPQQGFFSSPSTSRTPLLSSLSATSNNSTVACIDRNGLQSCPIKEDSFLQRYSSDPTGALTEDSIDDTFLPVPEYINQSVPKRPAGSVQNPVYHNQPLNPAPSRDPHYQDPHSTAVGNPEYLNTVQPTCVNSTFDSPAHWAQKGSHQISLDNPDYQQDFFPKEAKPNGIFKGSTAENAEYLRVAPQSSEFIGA
Experimental: EGFR kinase activity was determined via enzyme-linked immunosorbent assay (ELISA) in 96-well plates. The EGFR kinase activity for each compound were expressed as IC50 values. Data were represented as mean ± SD from three independent experiments, and differences between groups were considered statistically significant at p < .05.
The mechanism of antitumour activity of the target compounds was studied using ELISA-based EGFR-TK assay.

Row | SMILES | IC50 (EGFR kinase) [µM] | melting point [°C] | IC50 (HepG2) [µg/mL] | IC50 (HCT116) [µg/mL]
1 | CN(C)C/C=C/C(=O)Nc1cc2c(Nc3ccc(F)c(Cl)c3)ncnc2cc1O[C@H]1CCOC1 [Afatinib, afatinib, reference compound] |  |  | 5.4 ± 0.25 (≈ 11.1 µM) | 11.4 ± 1.26 (≈ 23.5 µM)
2 | CN(C)c1ccc(/C=C/c2cc(C(=O)O)c3cc(Br)ccc3n2)cc1 [Compound 3a] | 2.23 |  | 9.8 ± 0.2 (≈ 24.7 µM) | 9 ± 0.35 (≈ 22.7 µM)
3 | Cc1ccc2nc(C=Cc3ccc(N(C)C)cc3)cc(C(=O)O)c2c1 [Compound 3b, 2–(4-(Dimethylamino)styryl)-6-methylquinoline-4-carboxylic acid] | 8.01 | 275 | 17.2 ± 1.04 (≈ 51.7 µM) | 14.8 ± 0.89 (≈ 44.5 µM)
4 | CN(C)c1ccc(C=Cc2cc(-c3nnc(N)s3)c3cc(Br)ccc3n2)cc1 [Compound 4a, 5-(6-Bromo-2–(4-(dimethylamino)styryl)quinolin-4-yl)-1,3,4-thiadiazol-2-amine] | 8.78 | 223 | 9 ± 0.19 (≈ 19.9 µM) | 14.2 ± 0.67 (≈ 31.4 µM)
5 | Cc1ccc2nc(C=Cc3ccc(N(C)C)cc3)cc(-c3nnc(N)s3)c2c1 [Compound 4b, 5-(2-(4-(Dimethylamino)styryl)-6-methylquinolin-4-yl)-1,3,4-thiadiazol-2-amine] | 1.11 | 226 | 7.7 ± 0.15 (≈ 19.9 µM) | 8.8 ± 0.26 (≈ 22.7 µM)
6 | O=c1[nH]cc(F)c(=O)[nH]1 [Compound 5-FU, 5-fluorouracil, reference compound] |  |  | 7.9 ± 0.17 (≈ 60.7 µM) | 5.3 ± 0.32 (≈ 40.7 µM)

Further lines, with some results ahead:

Row | IC50 (EGFR kinase) [µM] | melting point [°C] | SMILES | IC50 (HepG2) [µg/mL] | IC50 (HCT116) [µg/mL]
7 |  | 242 | CN(C)c1ccc(C=Cc2cc(C(=O)Oc3ccc(C=O)cc3)c3cc(Br)ccc3n2)cc1 [Compound 6a, 4-Formylphenyl 6-bromo-2-(4-(dimethylamino)styryl)quinoline-4-carboxylate] | 82.9 ± 4.64 (≈ 165 µM) | 96.6 ± 5.4 (≈ 193 µM)
8 |  | 248 | Cc1ccc2nc(C=Cc3ccc(N(C)C)cc3)cc(C(=O)Oc3ccc(C=O)cc3)c2c1 [Compound 6b, 4-Formylphenyl 2-(4-(dimethylamino)styryl)-6-methylquinoline-4-carboxylate] | > 100 | > 100
9 |  | 232 | CN(C)c1ccc(C=Cc2cc(C(=O)NNc3ccccc3)c3cc(Br)ccc3n2)cc1 [Compound 7a, 6-Bromo-2-(4-(dimethylamino)styryl)-N'-phenylquinoline-4-carbohydrazide] | 46.1 ± 2.81 (≈ 94.6 µM) | 49.7 ± 3 (≈ 102 µM)
10 |  | 228 | Cc1ccc2nc(C=Cc3ccc(N(C)C)cc3)cc(C(=O)NNc3ccccc3)c2c1 [Compound 7b, 2-(4-(Dimethylamino)styryl)-6-methyl-N'-phenylquinoline-4-carbohydrazide] | 72.8 ± 3.82 (≈ 172 µM) | 61.4 ± 3.76 (≈ 145 µM)
11 | 16 | > 300 | CCOC(=O)C(C#N)C(=O)c1cc(C=Cc2ccc(N(C)C)cc2)nc2ccc(Br)cc12 (centres unmarked) [Compound 8a, Ethyl 3-(6-bromo-2-(4-(dimethylamino)styryl)quinolin-4-yl)-2-cyano-3-oxopropanoate] | 26.2 ± 1.79 (≈ 53.2 µM) | 16 ± 0.88 (≈ 32.5 µM)
12 |  | > 300 | CCOC(=O)C(C#N)C(=O)c1cc(C=Cc2ccc(N(C)C)cc2)nc2ccc(C)cc12 (centres unmarked) [Compound 8b, Ethyl 2-cyano-3-(2-(4-(dimethylamino)styryl)-6-methylquinolin-4-yl)-3-oxopropanoate] | 43.7 ± 2.66 (≈ 102 µM) | 52.6 ± 3.92 (≈ 123 µM)
13 |  | > 300 | CC(=O)C(C(C)=O)C(=O)c1cc(C=Cc2ccc(N(C)C)cc2)nc2ccc(Br)cc12 [Compound 9a, 3-(6-Bromo-2-(4-(dimethylamino)styryl)quinoline-4-carbonyl)pentane-2,4-dione] | 65.4 ± 3.18 (≈ 136 µM) | 57.3 ± 3.07 (≈ 120 µM)
14 |  | > 300 | CC(=O)C(C(C)=O)C(=O)c1cc(C=Cc2ccc(N(C)C)cc2)nc2ccc(C)cc12 [Compound 9b, 3-(2-(4-(Dimethylamino)styryl)-6-methylquinoline-4-carbonyl)pentane-2,4-dione] | > 100 | 93.1 ± 5.64 (≈ 225 µM)
